From patent US5385947A, “Octahydrophenanthrene derivatives” (Hoffmann-La Roche Inc., priority 1993, dated 1995)
Counter-ions that a name gives are not always drawn.

Columns and labels:
[1] = molecular target: specific binding sites of dizocilpine ([3H]-MK801) in the rat cortex; test: 3H-MK801 (dizocilpine) binding test: inhibition of the binding of dizocilpine to the specific binding sites in rat cortex; settings: 50 percent inhibition of specific binding of dizocilpine
Description: The pharmacological activity of some compounds in accordance with the invention and of rac-cis-4b-(2-amino-ethyl)4b,5,6,7,8,8a,9,10-octahydro-phenanthren-8a-ol was determined in vitro according to the method described in Europ. J. Pharmacol. 135, 261 (1987). According to this method [namely the 3H-MK801 (dizocilpine) binding test] the inhibition of the binding of dizocilpine to the specific binding sites in rat cortex by the respective test substances is determined. The IC50 ("50% inhibiting concentration") is that concentration of the respective test substance which brings about a 50 percent inhibition of the specific binding of dizocilpine to the specific binding sites in the rat cortex.
(§1) The thus-determined activity of some compounds in accordance with the invention will be evident from the IC50 values set forth in the following Table; moreover, the Table contains data concerning their toxicity (lowest lethal dosage=LLD in the mouse, p.o.).

[2] = tested on: mouse; test: Toxicity (lowest lethal dosage, LLD) in the mouse, p.o.; assay type: in vivo
Text: as §1

Row | Compound | IC50 [1] [µM] | Toxicity LLD (lowest lethal dosage) [2] [mg/kg]
1 | Cl.NCC[C@@]12CCCC[C@]1(O)CCc1c(F)cc(Cl)cc12 (racemic) [rac-cis-4b-(2-Amino-ethyl)-3-chloro-1-fluoro-4b,5,6,7,8,8a,9,10-octahydro-phenanthren-8a-ol hydrochloride] | 0.107 | 1000
2 | Cl.NCC[C@@]12CCCC[C@]1(O)CCc1ccc(Cl)cc12 (racemic) [rac-cis-4b-(2-Amino-ethyl)-3-chloro-4b,5,6,7,8,8a,9,10-octahydro-phenanthren-8a-ol hydrochloride] | 0.0847 | 500
3 | Cl.NCC[C@@]12CCCC[C@]1(O)CCc1ccccc12 (racemic) [rac-cis-4b-(2-Amino-ethyl)-4b,5,6,7,8,8a,9,10-octahydro-phenanthren-8a-ol hydrochloride] | 0.093 | 250
4 | Cl.NCC[C@@]12CCCC[C@]1(O)CCc1ccc(O)cc12 (racemic) [rac-cis-4b-(2-Amino-ethyl)-4b,5,6,7,8,8a,9,10-octahydro-phenanthrene-3,8a-diol hydrochloride] | 0.0734 | 1000
5 | CN(C)CC[C@@]12CCCC[C@]1(O)CCc1ccccc12 (racemic) [rac-cis-4b-(2-Dimethylamino-ethyl)-4b,5,6,7,8,8a,9,10-octahydro-phenanthren-8a-ol hydrochloride] | 0.453 | –
6 | CN(C)CC[C@@]12CCCC[C@]1(O)CCc1ccc(Cl)cc12.Cl (single isomer, unassigned) [(-)-cis-3-Chloro-4b-(2-dimethylamino-ethyl)-4b,5,6,7,8,8a,9,10-octahydro-phenanthren-8a-ol hydrochloride] | 0.254 | 375
